The test deals with Plasmodium berghei. The experiment in a line: Luciferase/luciferin-expressing antifolate-resistant parasites were used to infect a culture of HepG2 cells that were pre-incubated with compounds. Infected hepatocytes emit light due to the luciferase reaction. Assay results are presented as the percent inhibition of light emission compared to control. […]. Format: functional. Particulars: sporozoite; for IC90: read-out: LUCIFERASE INFECTION ASSAY - IC90.

[1] abbreviates: read-out: LUCIFERASE INFECTION ASSAY - IC50.

As usually defined, the IC50 is the concentration at which inhibition is half-maximal. As usually defined, the IC90 is the point of the concentration-response curve where the effect stands at 90%.

Molecules are shown by their SMILES. Where only a bound is given, the exact number is not on record here.

Regarding `Cc1sc(-n2cccc2)c(C(=O)Nc2cccc(-c3nn[nH]n3)c2)c1C`, the 90% effect concentration (IC90) is greater than 10 µM. Moreover, the concentration for half-maximal inhibition (IC50) (FFLUC_HILL_SLOPE 1.33, FFLUC_R_SQUARED 0.778, read-out: LUCIFERASE INFECTION ASSAY - IC50) is greater than 10 µM.

With `O=C(Nc1cccc(Cl)c1)c1csc(C(O)C2CCCCC2)n1` (configuration not stated), the concentration for an effect of 90% (IC90) was greater than 10 µM. Besides, the half-inhibitory concentration (IC50) under setting [1] was greater than 10 µM.

As for `CC(C)CC(=O)NC(=S)Nc1ccc(S(=O)(=O)N(C)Cc2ccccc2)cc1`, the IC90 was 4.58 µM. In addition, where the note is “HEPG2TOX_HILL_SLOPE 1.27, HEPG2TOX_R_SQUARED 0.987, PBLUC_HILL_SLOPE 1.32, PBLUC_R_SQUARED 0.74, read-out: LUCIFERASE INFECTION ASSAY - IC50”, the IC50 amounted to 0.868 µM.

For `O=C(CSc1nnc(-c2ccncc2)[nH]1)N1N=C(c2cccs2)CC1c1cccs1` (configuration not stated), the IC90 was greater than 10 µM. Besides, for the setting “HEPG2TOX_HILL_SLOPE 0.148, HEPG2TOX_R_SQUARED 0.0376, read-out: LUCIFERASE INFECTION ASSAY - IC50”, the IC50 is greater than 10 µM.

Take `CCCCCCCCCCCCCCCCCC1=[N+](c2ccccc2)C(Nc2ccccc2)CN1c1ccccc1` (configuration not stated): the IC90 is greater than 5.61 µM. The IC50 (HEPG2TOX_HILL_SLOPE 13, HEPG2TOX_R_SQUARED 0.218, read-out: LUCIFERASE INFECTION ASSAY - IC50) is greater than 5.61 µM.

In the case of `O=C(c1ccccc1)C(Sc1nnc(Cc2cccs2)n1CCc1ccccc1)c1ccccc1` (configuration not stated), the IC90 is greater than 10 µM. Further, under setting [1], the IC50 was greater than 10 µM.

`S=C(NCc1ccc(Cl)c(Cl)c1)Nc1cccnc1`: the IC90 was greater than 10.6 µM. Moreover, under setting [1], the IC50 was greater than 10.6 µM.

With `CCC(Sc1nnc(-c2ccccc2F)[nH]1)C(=O)Nc1ccccc1` (configuration not stated), the IC90 was greater than 10 µM. Under setting [1], the IC50 is greater than 10 µM.

As for `CCCCCCCCSC(=S)c1c(C)[nH]n(-c2ccccc2)c1=O`, the IC90 is greater than 9.1 µM. In addition, the IC50 (PBLUC_HILL_SLOPE 1.5, PBLUC_R_SQUARED 0.801, read-out: LUCIFERASE INFECTION ASSAY - IC50) was greater than 9.1 µM.

On to `Oc1c(C(c2ccc(Br)cc2)N2CCCC2)cc(Cl)c2cccnc12` (configuration not stated), for which the IC90 worked out at 4.01 µM. Under “FFLUC_HILL_SLOPE 1.86, FFLUC_R_SQUARED 0.64, HEPG2TOX_HILL_SLOPE 1.66, HEPG2TOX_R_SQUARED 0.745, PBLUC_HILL_SLOPE 3.81, PBLUC_R_SQUARED 0.789, read-out: LUCIFERASE INFECTION ASSAY - IC50”, the IC50 stood at 2.25 µM.

On to `Cc1csc(CNc2nc(-c3cccnc3)nc3sc(C)c(C)c23)n1`, for which the IC90 stood at 5.63 µM. Further, the 50% inhibitory concentration (IC50) (PBLUC_HILL_SLOPE 1.92, PBLUC_R_SQUARED 0.84, read-out: LUCIFERASE INFECTION ASSAY - IC50) worked out at 1.79 µM.

For `Cc1ccc2c(Cl)cc(Cl)c(Oc3ncnc4scc(-c5ccc(Cl)cc5)c34)c2n1`, the 90% effect concentration (IC90) is greater than 10 µM. The concentration for half-maximal inhibition (IC50) (PBLUC_HILL_SLOPE 0.397, PBLUC_R_SQUARED 0.123, read-out: LUCIFERASE INFECTION ASSAY - IC50) was greater than 10 µM.

On to `Cc1cccc(CNc2nc3cnc(-c4ccccc4)cc3n2C)c1`, for which the concentration for an effect of 90% (IC90) is greater than 10 µM. In addition, the IC50 under setting [1] is greater than 10 µM.

Take `COc1ccc(-n2nc(C)c3c(=O)c(Cl)c(C)[nH]c32)cc1`: the 90% effect concentration (IC90) is greater than 10.9 µM. The IC50 (PBLUC_HILL_SLOPE 4.15, PBLUC_R_SQUARED 0.0529, read-out: LUCIFERASE INFECTION ASSAY - IC50) was found to be 10.4 µM.

Turning to `O=C(Nc1ccc(OC(F)(F)F)cc1)Sc1ccc(Cl)s1`, the 90% effect concentration (IC90) is greater than 9.33 µM. For the setting “FFLUC_HILL_SLOPE 30.4, FFLUC_R_SQUARED 0.438, HEPG2TOX_HILL_SLOPE 8.9, HEPG2TOX_R_SQUARED 0.733, PBLUC_HILL_SLOPE 2, PBLUC_R_SQUARED 0.693, read-out: LUCIFERASE INFECTION ASSAY - IC50”, the IC50 is 3.61 µM.

For the molecule `Cc1nn(Cc2ccccc2Cl)c(C)c1C(=O)OCC(=O)N1CCN(c2ccccc2)CC1`, the IC90 is greater than 10 µM. The half-maximal inhibitory concentration (IC50) under setting [1] was greater than 10 µM.

Turning to `c1ccc2c(C3=NN=C(NC4CCCCC4)SC3)c[nH]c2c1`, the IC90 is greater than 10 µM. Besides, under setting [1], the 50% inhibitory concentration (IC50) was greater than 10 µM.

`CCN(C(=O)c1ccccc1Br)c1nc2c(C)cccc2s1`: the concentration for an effect of 90% (IC90) was greater than 10 µM. The half-maximal inhibitory concentration (IC50) under setting [1] is greater than 10 µM.

In the case of `N#Cc1c(SCc2ccccc2)nc2c(c1-c1cccs1)CCCC2`, the IC90 was greater than 9.1 µM. Besides, the half-inhibitory concentration (IC50) (FFLUC_HILL_SLOPE 16.1, FFLUC_R_SQUARED 0.0835, PBLUC_HILL_SLOPE 1.89, PBLUC_R_SQUARED 0.544, read-out: LUCIFERASE INFECTION ASSAY - IC50) was 3.48 µM.

For `COc1cccc(Nc2nccc3c2cc(-c2cccc(OC)c2)n3C)c1`, the concentration for an effect of 90% (IC90) was greater than 10 µM. The IC50 (PBLUC_HILL_SLOPE 0.902, PBLUC_R_SQUARED 0.605, read-out: LUCIFERASE INFECTION ASSAY - IC50) is 2.59 µM.

For `Cc1c(-c2ccc(Cl)c(S(=O)(=O)N(C)c3ccccc3)c2)oc2ccc(F)cc2c1=O`, the IC90 was determined as 4.45 µM. For the same molecule, for the setting “PBLUC_HILL_SLOPE 9.42, PBLUC_R_SQUARED 0.55, read-out: LUCIFERASE INFECTION ASSAY - IC50”, the half-inhibitory concentration (IC50) is 3.52 µM.

`CNc1nc2cnc(Nc3cccc(C(C)=O)c3)cc2n1-c1cccc(F)c1`: the 90% effect concentration (IC90) was greater than 10 µM. Under setting [1], the IC50 was greater than 10 µM.

Consider `CN1CCN(c2ccc(-c3cn4c(-c5ccc6c(c5)OCO6)cnc4cn3)cn2)CC1`, for which the IC90 was greater than 7.96 µM. Further, the concentration for half-maximal inhibition (IC50) (PBLUC_HILL_SLOPE 2.2, PBLUC_R_SQUARED 0.54, read-out: LUCIFERASE INFECTION ASSAY - IC50) was found to be 6.26 µM.

Regarding `N#Cc1ccc(-c2cnc3cnc(-c4cccc(N)c4)cn23)cc1`, the IC90 worked out at 4.97 µM. The concentration for half-maximal inhibition (IC50) under setting [1] was 2.59 µM.

For `CC(=O)c1c(C)[nH]c(C(=O)Nc2nc(-c3ccc4c(c3)CCC4)cs2)c1C`, the IC90 was greater than 10 µM. In addition, the concentration for half-maximal inhibition (IC50) under setting [1] came out at 6.23 µM.

In the case of `OCc1cccc(-c2cnc3cnc(-c4ccc(CNc5ccccc5)cc4)cn23)c1`, the IC90 was greater than 8.12 µM. The IC50 (FFLUC_HILL_SLOPE 0.18, FFLUC_R_SQUARED 0.146, PBLUC_HILL_SLOPE 3.27, PBLUC_R_SQUARED 0.516, read-out: LUCIFERASE INFECTION ASSAY - IC50) turned out to be 6.25 µM.

For `Cc1cc(C(=O)NCC#Cc2cccc(C(F)(F)F)c2)on1`, the IC90 was 8.21 µM. The IC50 (PBLUC_HILL_SLOPE 5.05, PBLUC_R_SQUARED 0.342, read-out: LUCIFERASE INFECTION ASSAY - IC50) was 5.32 µM.

As to `N#C/C(=C\C=C\c1ccccc1)c1cccc(Cl)c1`, the concentration for an effect of 90% (IC90) is greater than 12.4 µM. Further, under setting [1], the IC50 was greater than 12.4 µM.

Consider `O=C(COC(=O)COc1ccc2c3c(c(=O)oc2c1)CCC3)Nc1ccc(F)c(F)c1F`, for which the IC90 was greater than 10 µM. In addition, the half-inhibitory concentration (IC50) under setting [1] is greater than 10 µM.

`O=C(NCCOc1ccccc1F)NCC1CC1`: the 90% effect concentration (IC90) is greater than 10 µM. Under setting [1], the IC50 is greater than 10 µM.

Turning to `COc1ccc(OC)c2c1CN(c1cnn(-c3nc4ccccc4[nH]3)c(=O)c1Cl)CC2O` (configuration not stated), the concentration for an effect of 90% (IC90) was greater than 10 µM. For the same molecule, the IC50 under setting [1] is greater than 10 µM.

As to `O=C(Nc1ccc(CN2CCCC2)cc1)c1[nH]nc2ccccc12`, the 90% effect concentration (IC90) turned out to be 5.09 µM. Besides, where the note is “FFLUC_HILL_SLOPE 0.453, FFLUC_R_SQUARED 0.794, PBLUC_HILL_SLOPE 1.12, PBLUC_R_SQUARED 0.946, read-out: LUCIFERASE INFECTION ASSAY - IC50”, the IC50 came to 0.718 µM.

Regarding `CCN(CC)c1ccc(NC(=S)NC(=O)c2ccco2)cc1S(=O)(=O)Nc1ccc(OC)cc1`, the IC90 was greater than 10 µM. Besides, the IC50 under setting [1] was greater than 10 µM.

As for `CCCCCCNC(=S)c1c(-c2ccc(F)cc2)c2c3n(c(COc4cc(C)ccc4C(C)C)nn13)CCCC2`, the IC90 turned out to be 8.92 µM. The IC50 (HEPG2TOX_HILL_SLOPE 19.8, 4.67, HEPG2TOX_R_SQUARED 0.943, 0.975, PBLUC_HILL_SLOPE 3.99, PBLUC_R_SQUARED 0.689, read-out: LUCIFERASE INFECTION ASSAY - IC50) turned out to be 5.14 µM.

With `CC1CCN(Cc2csc(NC(=O)c3ccc(SCc4cscn4)cc3)n2)CC1`, the IC90 worked out at 9.76 µM. In addition, the half-inhibitory concentration (IC50) (HEPG2TOX_HILL_SLOPE 2.61, HEPG2TOX_R_SQUARED 0.966, PBLUC_HILL_SLOPE 9.48, PBLUC_R_SQUARED 0.381, read-out: LUCIFERASE INFECTION ASSAY - IC50) is 7.74 µM.

As for `CCC(C)c1ccc(NC(=O)/C(C#N)=C/c2cc3c(cc2[N+](=O)[O-])OCO3)cc1` (configuration not stated), the IC90 is greater than 10 µM. For the setting “HEPG2TOX_HILL_SLOPE 0.229, HEPG2TOX_R_SQUARED 0.341, PBLUC_HILL_SLOPE 0.634, PBLUC_R_SQUARED 0.752, read-out: LUCIFERASE INFECTION ASSAY - IC50”, the IC50 is 2.46 µM.

On to `CCN(CC)C(CNc1ccc([N+](=O)[O-])cn1)Cc1ccccc1` (configuration not stated), for which the IC90 was greater than 10 µM. Under setting [1], the IC50 worked out at 7 µM.

Regarding `CCOC(=O)c1c(NC(=O)CN(CC(C)C)C2CC2)sc(C(=O)Nc2ccc(C)cc2C)c1C`, the IC90 was 5.26 µM. Besides, the IC50 under setting [1] amounted to 4.24 µM.

Turning to `Cc1cc([N+](=O)[O-])cc(S(=O)(=O)N(Cc2ccc(C(=O)NC3CC3)cc2)C2CC2)c1C`, the 90% effect concentration (IC90) was 2.18 µM. Where the note is “PBLUC_HILL_SLOPE 2.2, PBLUC_R_SQUARED 0.808, read-out: LUCIFERASE INFECTION ASSAY - IC50”, the IC50 came to 0.801 µM.

Take `FC(F)(F)Oc1cccc(-c2cnc3sc(NCCc4ccncc4)nn23)c1`: the IC90 was greater than 8.14 µM. In addition, the IC50 (HEPG2TOX_HILL_SLOPE 1.76, HEPG2TOX_R_SQUARED 0.88, read-out: LUCIFERASE INFECTION ASSAY - IC50) was greater than 8.14 µM.

As for `Cc1ccc(OCc2csc(-c3cnn(C)c3)n2)c2c1C(C)CC2=O` (configuration not stated), the IC90 is greater than 10 µM. In addition, under “PBLUC_HILL_SLOPE 1.52, PBLUC_R_SQUARED 0.607, read-out: LUCIFERASE INFECTION ASSAY - IC50”, the IC50 is 3.47 µM.

(Values after ChEMBL document CHEMBL4483862, “Open-source discovery of chemical leads for next-generation chemoprotective antimalarials” (2018).)
